Assay results published in patent US20250262201A1, “COMPOUNDS AND METHODS USEFUL FOR STABILIZING PHENYLALANINE HYDROXYLASE MUTATIONS” (Agios Pharmaceuticals, Inc., priority 2022, published 2025).
Like-named read-outs stand apart in the source and are kept apart here.

Molecular target: T1, human PAH with the R408W mutation (Homo sapiens, UniProt P00439, R408W)
T1 construct: expressed in transfected cells
T1 sequence (P00439 1-452 R408W): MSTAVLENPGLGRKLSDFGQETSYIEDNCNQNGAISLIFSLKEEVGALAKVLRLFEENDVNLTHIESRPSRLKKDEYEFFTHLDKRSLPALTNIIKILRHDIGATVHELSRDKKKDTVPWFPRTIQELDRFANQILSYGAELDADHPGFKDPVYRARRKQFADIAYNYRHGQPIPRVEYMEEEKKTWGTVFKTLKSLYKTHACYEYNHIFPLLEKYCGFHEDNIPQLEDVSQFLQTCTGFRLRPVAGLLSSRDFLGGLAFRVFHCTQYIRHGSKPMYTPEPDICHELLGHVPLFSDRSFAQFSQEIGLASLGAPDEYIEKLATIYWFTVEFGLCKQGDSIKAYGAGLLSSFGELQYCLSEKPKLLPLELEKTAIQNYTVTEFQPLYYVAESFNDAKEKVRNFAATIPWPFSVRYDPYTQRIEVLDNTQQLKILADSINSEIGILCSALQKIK
Assay: Cell Based Phenylalanine Flux Assay
Design: scale not given here
Conditions: 13C-Tyrosine by LC-MS, average where tested multiple times

[1] = A375 cells expressing human R408W PAH, 24 hrs compound incubation, read-out: AC50
[2] = A375 R408W cells, 24 hrs with compound, then 20 μM sepiapterin and 800 μM 13C9,15N-Phenylalanine for 4 hours

AC50 [1] [nM]	AC50 [2]	SMILES
1000 to 5000		O=C(c1cn[nH]c1Cl)N1CCc2[nH]cnc2C1c1ccc2ccccc2n1 (stereo in doubt) [Example 123, (S)-(5-chloro-1H-pyrazol-4-yl)(4-(quinolin-2-yl)-6,7-dihydro-1H-imidazo[4,5-c]pyridin-5(4H)-yl)methanone]
1000 to 5000		CC(C)(C#N)c1nc(C(F)F)c(C(=O)N2CCc3[nH]cnc3C2c2ccc3ccccc3n2)o1 (stereo in doubt) [Example 127, (S)-2-(4-(difluoromethyl)-5-(4-(quinolin-2-yl)-4,5,6,7-tetrahydro-1H-imidazo[4,5-c]pyridine-5-carbonyl)oxazol-2-yl)-2-methylpropanenitrile]
< 500		CC(C)(C#N)c1nc(C(F)F)c(C(=O)N2CCc3[nH]cnc3C2c2ccc3ccccc3n2)o1 (stereo in doubt) [Example 128, (R)-2-(4-(difluoromethyl)-5-(4-(quinolin-2-yl)-4,5,6,7-tetrahydro-1H-imidazo[4,5-c]pyridine-5-carbonyl)oxazol-2-yl)-2-methylpropanenitrile]
< 500		O=C(c1cn[nH]c1C(F)F)N1CCc2[nH]cnc2C1c1ccc2ccccc2n1 (stereo in doubt) [Example 259, (R)-(5-(difluoromethyl)-1H-pyrazol-4-yl)(4-(quinolin-2-yl)-6,7-dihydro-1H-imidazo[4,5-c]pyridin-5(4H)-yl)methanone]
500 to 1000		Cn1nc(Cl)nc1C(=O)N1CCc2[nH]cnc2C1c1ccc2ccccc2n1 (stereo in doubt) [Example 265, (R)-(3-chloro-1-methyl-1H-1,2,4-triazol-5-yl)(4-(quinolin-2-yl)-6,7-dihydro-1H-imidazo[4,5-c]pyridin-5(4H)-yl)methanone]
500 to 1000		CCn1cnnc1C(=O)N1CCc2[nH]cnc2C1c1ccc2ccccc2n1 (stereo in doubt) [Example 270, (R)-(4-ethyl-4H-1,2,4-triazol-3-yl)(4-(quinolin-2-yl)-6,7-dihydro-1H-imidazo[4,5-c]pyridin-5(4H)-yl)methanone]
< 500		O=C(c1cnc(-c2ccc(F)cn2)s1)N1CCc2[nH]cnc2C1c1cc2ccccc2cn1 (stereo in doubt) [Example 312, (R)-(2-(5-fluoropyridin-2-yl)thiazol-5-y1)(4-(isoquinolin-3-yl)-6,7-dihydro-1H-imidazo[4,5-c]pyridin-5(4H)-yl)methanone]
	E, E,	CC1CN(C(=O)c2oc(C(C)(C)O)nc2C(F)(F)F)C(c2cc3ccccc3cn2)c2nc[nH]c21 [(4R, 7S) diastereomer of (2-(2-hydroxypropan-2-yl)-4-(triflu]
	E, E	CC1CN(C(=O)c2nnc(C(C)(C)O)o2)C(c2cc3ccccc3cn2)c2nc[nH]c21 [(4S, 7R) diastereomer of 2-{5-[4-(isoquinolin-3-yl)-7-methyl]
	E, E	CC1CN(C(=O)c2ocnc2C(F)(F)F)C(c2cc3ccccc3cn2)c2nc[nH]c21 [(4S, 7R) diastereomer of 3-[7-methyl-5-[4-(trifluoromethyl)-]

More lines, now with the values behind:

SMILES	AC50 [1] [nM]	AC50 [2]
O=C(c1cn[nH]c1Cl)N1CCc2[nH]cnc2C1c1ccc2ccccc2n1 (stereo in doubt) [Example 124, (R)-(5-chloro-1H-pyrazol-4-yl)(4-(quinolin-2-yl)-6,7-dihydro-1H-imidazo[4,5-c]pyridin-5(4H)-yl)methanone]	500 to 1000	
O=C(c1cnn(CC(F)(F)F)c1C(F)F)N1CCc2[nH]cnc2C1c1ccc2ccccc2n1 (stereo in doubt) [Example 125, (R)-(5-(difluoromethyl)-1-(2,2,2-trifluoroethyl)-1H-pyrazol-4-yl)(4-(quinolin-2-yl)-6,7-dihydro-1H-imidazo[4,5-c]pyridin-5(4H)-yl)methanone]	1000 to 5000	
O=C(c1cnn(CC(F)(F)F)c1C(F)F)N1CCc2[nH]cnc2C1c1ccc2ccccc2n1 (stereo in doubt) [Example 126, (S)-(5-(difluoromethyl)-1-(2,2,2-trifluoroethyl)-1H-pyrazol-4-yl)(4-(quinolin-2-yl)-6,7-dihydro-1H-imidazo[4,5-c]pyridin-5(4H)-yl)methanone]	> 5000	
O=C(c1oc(C2(O)CC2)nc1C(F)F)N1CCc2[nH]cnc2C1c1ccc2ccccc2n1 (stereo in doubt) [Example 129, (S)-(4-(difluoromethyl)-2-(1-hydroxycyclopropyl)oxazol-5-yl)(4-(quinolin-2-yl)-6,7-dihydro-1H-imidazo[4,5-c]pyridin-5(4H)-yl)methanone]	1000 to 5000	
O=C(c1oc(C2(O)CC2)nc1C(F)F)N1CCc2[nH]cnc2C1c1ccc2ccccc2n1 (stereo in doubt) [Example 130, (R)-(4-(difluoromethyl)-2-(1-hydroxycyclopropyl)oxazol-5-yl)(4-(quinolin-2-yl)-6,7-dihydro-1H-imidazo[4,5-c]pyridin-5(4H)-yl)methanone]	< 500	
CC(C)(C)c1ncc(C(=O)N2CCc3[nH]cnc3C2c2ccc3ccccc3n2)o1 (stereo in doubt) [Example 258, (R)-(2-(tert-butyl)oxazol-5-yl)(4-(quinolin-2-yl)-6,7-dihydro-1H-imidazo[4,5-c]pyridin-5(4H)-yl)methanone]	< 500	
O=C(c1ccnn1-c1ccccn1)N1CCc2[nH]cnc2C1c1ccc2ccccc2n1 (stereo in doubt) [Example 261, (R)-(1-(pyridin-2-yl)-1H-pyrazol-5-yl)(4-(quinolin-2-yl)-6,7-dihydro-1H-imidazo[4,5-c]pyridin-5(4H)-yl)methanone]	< 500	
Cn1nc(Cl)cc1C(=O)N1CCc2[nH]cnc2C1c1ccc2ccccc2n1 (stereo in doubt) [Example 263, (R)-(3-chloro-1-methyl-1H-pyrazol-5-yl)(4-(quinolin-2-yl)-6,7-dihydro-1H-imidazo[4,5-c]pyridin-5(4H)-yl)methanone]	< 500	
Nc1cc(C(=O)N2CCc3[nH]cnc3C2c2ccc3ccccc3n2)n(C(F)F)n1 (stereo in doubt) [Example 267, (R)-(3-amino-1-(difluoromethyl)-1H-pyrazol-5-yl)(4-(quinolin-2-yl)-6,7-dihydro-1H-imidazo[4,5-c]pyridin-5(4H)-yl)methanone]	500 to 1000	
O=C(CCc1nccs1)N1CCc2[nH]cnc2C1c1ccc2ccccc2n1 (stereo in doubt) [Example 271, (R)-1-(4-(quinolin-2-yl)-6,7-dihydro-1H-imidazo[4,5-c]pyridin-5(4H)-yl)-3-(thiazol-2-yl)propan-1-one]	500 to 1000	
O=C(CCc1nccs1)N1CCc2[nH]cnc2C1c1ccc2ccccc2n1 (stereo in doubt) [Example 272, (S)-1-(4-(quinolin-2-yl)-6,7-dihydro-1H-imidazo[4,5-c]pyridin-5(4H)-yl)-3-(thiazol-2-yl)propan-1-one]	> 5000	
O=C(c1nnc(C2CC2)o1)N1CCc2[nH]cnc2C1c1cc2ccccc2cn1 (stereo in doubt) [Example 327, (S)-(5-cyclopropyl-1,3,4-oxadiazol-2-yl)(4-(isoquinolin-3-y1)-6,7-dihydro-1H-imidazo[4,5-c]pyridin-5(4H)-yl)methanone]	> 5000	
CC1CN(C(=O)c2oc(C(C)(C)O)nc2C(F)(F)F)C(c2cc3ccccc3cn2)c2nc[nH]c21 [(4R,7R) diastereomer of (2-(2-hydroxypropan-2-yl)-4-(trifluo]		E, E,
Cc1nnc(C(=O)N2CC(C)c3[nH]cnc3C2c2cc3ccccc3cn2)o1 [(4S, 7R) diastereomer of 3-[7-methyl-5-(5-methyl-1,3,4-oxadi]		E, E
